Assay results taken from PubChem BioAssay (NCI).
“And” between values parts separate entries of the source, which are not always exact repeats. Equal values may be shown once.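 Method: 48-hour compound exposure of cells in 96-well plates, five concentrations, linear interpolation of endpoints. The concentration for 50% growth inhibition is given as GI50. TGI marks complete inhibition of growth.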

Assays:
Assay in all cases: growth of human tumour cells (NCI), 48 h
A549 NSCLC = system: A549 NSCLC
HOP-62 NSCLC = system: HOP-62 NSCLC
HCT-15 colon = system: HCT-15 colon
UO-31 renal = system: UO-31 renal
NCI-H460 lung = system: NCI-H460 lung
SK-MEL-5 melanoma = system: SK-MEL-5 melanoma
U251 CNS = system: U251 CNS
HCT-116 colon = system: HCT-116 colon
OVCAR-4 ovarian = system: OVCAR-4 ovarian
RXF 393 renal = system: RXF 393 renal

| SMILES | TGI (A549 NSCLC) [µM] | TGI (HOP-62 NSCLC) [µM] | TGI (HCT-15 colon) [µM] | TGI (UO-31 renal) [µM] | TGI (NCI-H460 lung) [µM] | TGI (SK-MEL-5 melanoma) [µM] | TGI (U251 CNS) [µM] | TGI (HCT-116 colon) [µM] | TGI (OVCAR-4 ovarian) [µM] | TGI (RXF 393 renal) [µM] | GI50 (HCT-15 colon) |
| --- | --- | --- | --- | --- | --- | --- | --- | --- | --- | --- | --- |
| Cc1ccc2c(=O)c(C(=O)NNC(=S)NC3CCCCC3)c[nH]c2n1 | > 100 | > 100 | > 100 | > 100 | > 100 | > 100 | > 100 | > 100 | > 100 | > 100 |  |
| COc1cc(C(=O)N(C(=S)OC23CC4CC(CC(C4)C2)C3)c2ccccc2)cc(OC)c1OC | > 100 | > 100 | > 100 | 79 | > 100 | 32.9 | 53 | 46.4 | > 100 | > 100 |  |
| NS(=O)(=O)c1ccc(N2C(=O)C(=O)N(c3ccccc3)C2=S)cc1 | > 100 | > 100 | > 100 | > 100 | > 100 | > 100 | > 100 | > 100 | > 100 | > 100 |  |
| N[C@@H](Cc1ccc2oc3cc(=O)c4ccccc4c-3nc2c1)C(=O)O | > 100 | 48.2 | > 100 | > 100 | > 100 | 24.1 | > 100 | > 100 | > 100 | > 100 |  |
| COC(=O)C1SC[C@H]2C(=O)N(c3ccccc3)C(=O)N12 (stereo partly specified) | > 100 | > 100 | > 100 | > 100 | > 100 | > 100 | > 100 | > 100 | > 100 | > 100 |  |
| COc1cc2c3c(c1OC)C(=O)C(=O)C1=C3N(CCC1)CC2 | > 100 | 96.9 | > 100 | > 100 | 37.5 | > 100 | > 100 | 47.3 | 62.2 | > 100 |  |
| COc1ncc(C#CC(=O)c2ccccc2)c(OC)n1 | 33.1 | 42 | 3.18 | 5.44 | 38 | 6.68 | 9.59 | 10.1 | 12.9 | 3.79 |  |
| COC1C(OC(C)=O)CC(=O)OC(C)C/C=C/C=C\C(O)C(C)CC(CC=O)C1OC1OC(C)C(OC2CC(C)(O)C(OC(=O)CC(C)C)C(C)O2)C(N(C)C)C1O (stereo unspecified) | > 100 | > 100 | > 100 | > 100 | > 100 | > 100 | > 100 | > 100 | > 100 | > 100 | 36.4 µM and > 100 µM |
| Nc1nc(Cc2ccccc2)nc(Cc2ccccc2)c1-c1ccccc1 | > 100 | 54 | 84.3 | > 100 | > 100 | 29.2 | 37.1 | 46 | > 100 | > 100 |  |
